Assay results: PubChem BioAssay (NCI)
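Exposure lasted 48 hours, with cells grown in 96-well plates and compounds tested at five concentrations. Definition used: TGI = concentration required for complete inhibition of growth.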

Key:
Experiment in all cases: DTP human tumour cell line panel, 48 h
786-0 renal = system: 786-0 renal
A498 renal = system: A498 renal
A549 NSCLC = system: A549 NSCLC
ACHN renal = system: ACHN renal
BT-549 breast = system: BT-549 breast
CAKI-1 renal = system: CAKI-1 renal
CCRF-CEM leukemia = system: CCRF-CEM leukemia
COLO 205 colon = system: COLO 205 colon
DU-145 prostate = system: DU-145 prostate
EKVX NSCLC = system: EKVX NSCLC
HCC-2998 colon = system: HCC-2998 colon
HCT-116 colon = system: HCT-116 colon
HCT-15 colon = system: HCT-15 colon
HL-60(TB) leukemia = system: HL-60(TB) leukemia
HOP-62 NSCLC = system: HOP-62 NSCLC
HOP-92 NSCLC = system: HOP-92 NSCLC
HS 578T breast = system: HS 578T breast
HT29 colon = system: HT29 colon
IGROV1 ovarian = system: IGROV1 ovarian
K-562 leukemia = system: K-562 leukemia
KM12 colon = system: KM12 colon
LOX IMVI melanoma = system: LOX IMVI melanoma
M14 melanoma = system: M14 melanoma
MALME-3M melanoma = system: MALME-3M melanoma
MCF7 breast = system: MCF7 breast
MDA-MB-231 breast = system: MDA-MB-231 breast
MDA-N = system: MDA-N
MOLT-4 leukemia = system: MOLT-4 leukemia
NCI-H226 lung = system: NCI-H226 lung
NCI-H23 lung = system: NCI-H23 lung
NCI-H460 lung = system: NCI-H460 lung
NCI-H522 lung = system: NCI-H522 lung
NCI/ADR-RES ovarian = system: NCI/ADR-RES ovarian
OVCAR-3 ovarian = system: OVCAR-3 ovarian
OVCAR-4 ovarian = system: OVCAR-4 ovarian
OVCAR-5 ovarian = system: OVCAR-5 ovarian
OVCAR-8 ovarian = system: OVCAR-8 ovarian
PC-3 prostate = system: PC-3 prostate
RPMI-8226 leukemia = system: RPMI-8226 leukemia
RXF 393 renal = system: RXF 393 renal
SF-268 CNS = system: SF-268 CNS
SF-295 CNS = system: SF-295 CNS
SF-539 CNS = system: SF-539 CNS
SK-MEL-2 melanoma = system: SK-MEL-2 melanoma
SK-MEL-28 melanoma = system: SK-MEL-28 melanoma
SK-MEL-5 melanoma = system: SK-MEL-5 melanoma
SK-OV-3 ovarian = system: SK-OV-3 ovarian
SN12C renal = system: SN12C renal
SNB-19 CNS = system: SNB-19 CNS
SNB-75 CNS = system: SNB-75 CNS
SR leukemia = system: SR leukemia
SW-620 colon = system: SW-620 colon
T-47D breast = system: T-47D breast
TK-10 renal = system: TK-10 renal
U251 CNS = system: U251 CNS
UACC-257 melanoma = system: UACC-257 melanoma
UACC-62 melanoma = system: UACC-62 melanoma
UO-31 renal = system: UO-31 renal
MDA-MB-435 = system: MDA-MB-435

## O=C1CC2(CCNCC2)C(=O)N1N1CCCCC1
786-0 renal
  TGI: > 100 µM
A498 renal
  TGI: > 100 µM
A549 NSCLC
  TGI: > 100 µM
ACHN renal
  TGI: > 100 µM
BT-549 breast
  TGI: > 100 µM
CAKI-1 renal
  TGI: > 100 µM
CCRF-CEM leukemia
  TGI: > 100 µM
COLO 205 colon
  TGI: > 100 µM
DU-145 prostate
  TGI: > 100 µM
EKVX NSCLC
  TGI: > 100 µM
HCC-2998 colon
  TGI: > 100 µM
HCT-116 colon
  TGI: > 100 µM
HCT-15 colon
  TGI: > 100 µM
HL-60(TB) leukemia
  TGI: > 100 µM
HOP-62 NSCLC
  TGI: > 100 µM
HOP-92 NSCLC
  TGI: > 100 µM
HS 578T breast
  TGI: > 100 µM
HT29 colon
  TGI: > 100 µM
IGROV1 ovarian
  TGI: > 100 µM
K-562 leukemia
  TGI: > 100 µM
KM12 colon
  TGI: > 100 µM
LOX IMVI melanoma
  TGI: > 100 µM
M14 melanoma
  TGI: > 100 µM
MALME-3M melanoma
  TGI: > 100 µM
MCF7 breast
  TGI: > 100 µM
MDA-MB-231 breast
  TGI: > 100 µM
MDA-N
  TGI: > 100 µM
MOLT-4 leukemia
  TGI: > 100 µM
NCI-H226 lung
  TGI: > 100 µM
NCI-H23 lung
  TGI: > 100 µM
NCI-H460 lung
  TGI: > 100 µM
NCI-H522 lung
  TGI: > 100 µM
NCI/ADR-RES ovarian
  TGI: > 100 µM
OVCAR-3 ovarian
  TGI: > 100 µM
OVCAR-4 ovarian
  TGI: > 100 µM
OVCAR-5 ovarian
  TGI: > 100 µM
OVCAR-8 ovarian
  TGI: > 100 µM
PC-3 prostate
  TGI: > 100 µM
RPMI-8226 leukemia
  TGI: > 100 µM
RXF 393 renal
  TGI: > 100 µM
SF-268 CNS
  TGI: > 100 µM
SF-295 CNS
  TGI: > 100 µM
SF-539 CNS
  TGI: > 100 µM
SK-MEL-2 melanoma
  TGI: > 100 µM
SK-MEL-28 melanoma
  TGI: > 100 µM
SK-MEL-5 melanoma
  TGI: > 100 µM
SK-OV-3 ovarian
  TGI: > 100 µM
SN12C renal
  TGI: > 100 µM
SNB-19 CNS
  TGI: > 100 µM
SNB-75 CNS
  TGI: > 100 µM
SR leukemia
  TGI: > 100 µM
SW-620 colon
  TGI: > 100 µM
T-47D breast
  TGI: > 100 µM
TK-10 renal
  TGI: > 100 µM
U251 CNS
  TGI: > 100 µM
UACC-257 melanoma
  TGI: > 100 µM
UACC-62 melanoma
  TGI: > 100 µM
UO-31 renal
  TGI: > 100 µM

## O=C1C(CO)=C[C@@H](O)[C@H]2O[C@@H]12
786-0 renal
  TGI: > 100 µM
A498 renal
  TGI: > 100 µM
A549 NSCLC
  TGI: > 100 µM
ACHN renal
  TGI: > 100 µM
BT-549 breast
  TGI: > 100 µM
CAKI-1 renal
  TGI: > 100 µM
CCRF-CEM leukemia
  TGI: > 100 µM
COLO 205 colon
  TGI: > 100 µM
DU-145 prostate
  TGI: > 100 µM
EKVX NSCLC
  TGI: > 100 µM
HCT-116 colon
  TGI: > 100 µM
HCT-15 colon
  TGI: > 100 µM
HL-60(TB) leukemia
  TGI: > 100 µM
HOP-62 NSCLC
  TGI: > 100 µM
HOP-92 NSCLC
  TGI: > 100 µM
HS 578T breast
  TGI: > 100 µM
HT29 colon
  TGI: > 100 µM
IGROV1 ovarian
  TGI: > 100 µM
K-562 leukemia
  TGI: > 100 µM
KM12 colon
  TGI: > 100 µM
LOX IMVI melanoma
  TGI: 65.4 µM
M14 melanoma
  TGI: > 100 µM
MALME-3M melanoma
  TGI: > 100 µM
MCF7 breast
  TGI: 44.9 µM
MDA-MB-231 breast
  TGI: > 100 µM
MDA-MB-435
  TGI: 78.6 µM
MDA-N
  TGI: > 100 µM
MOLT-4 leukemia
  TGI: > 100 µM
NCI-H226 lung
  TGI: > 100 µM
NCI-H23 lung
  TGI: > 100 µM
NCI-H460 lung
  TGI: > 100 µM
NCI-H522 lung
  TGI: > 100 µM
NCI/ADR-RES ovarian
  TGI: > 100 µM
OVCAR-3 ovarian
  TGI: > 100 µM
OVCAR-4 ovarian
  TGI: 53.4 µM
OVCAR-5 ovarian
  TGI: > 100 µM
OVCAR-8 ovarian
  TGI: > 100 µM
RPMI-8226 leukemia
  TGI: > 100 µM
SF-268 CNS
  TGI: > 100 µM
SF-295 CNS
  TGI: > 100 µM
SK-MEL-2 melanoma
  TGI: > 100 µM
SK-MEL-28 melanoma
  TGI: > 100 µM
SK-MEL-5 melanoma
  TGI: > 100 µM
SK-OV-3 ovarian
  TGI: > 100 µM
SN12C renal
  TGI: 36.3 µM
SNB-75 CNS
  TGI: > 100 µM
SR leukemia
  TGI: > 100 µM
SW-620 colon
  TGI: > 100 µM
T-47D breast
  TGI: > 100 µM
U251 CNS
  TGI: > 100 µM
UACC-62 melanoma
  TGI: > 100 µM
UO-31 renal
  TGI: > 100 µM
